Measurements as given in patent US9732081B2, “1,6-diazabicyclo [3,2,1] octan-7-one derivatives and their use in the treatment of bacterial infections” (WOCKHARDT LIMITED, priority 2012, dated 2017).
Values after ≈ are worked out from the molar mass of the structure shown. Read-outs that look alike come from different tables or passages of the source.

How the values were obtained:
Type in all cases: cell-based
E. Coli H 483 = test: Antibacterial activity (MIC, agar dilution per CLSI) against E. Coli H 483; details: for MIC: Escherichia coli, read-out: MIC E. Coli H 483
Procedure: (§1) The biological activity of representative compounds according to the invention against various bacterial strains was investigated. In a typical study, overnight grown bacterial cultures were diluted appropriately and inoculated on the agar media containing doubling dilutions of the test compounds. Observation for growth or no growth was performed after 16-20 hours of incubation at 35±2° C. in ambient air. The overall procedure was performed as per Clinical and Laboratory Standards Institute (CLSI) recommendations (Clinical and Laboratory Standards Institute (CLSI), Performance Standards for Antimicrobial Susceptibility Testing, 20th Informational Supplement, M 100-S20, Volume 30, No. 1, 2010).
(§2) The activities are expressed as MICs (mcg/ml).

P. aeruginosa Ps 32 = test: Antibacterial activity (MIC, agar dilution per CLSI) against P. aeruginosa Ps 32; details: for MIC: Pseudomonas aeruginosa
Procedure: as §1, §2

E. Coli M 50 = test: Antibacterial activity (MIC, agar dilution per CLSI) against E. Coli M 50; details: for MIC: Escherichia coli
Procedure: as §1, §2

E. Coli W 13352 = test: Antibacterial activity (MIC, agar dilution per CLSI) against E. Coli W 13352; details: for MIC: Escherichia coli
Procedure: as §1, §2

P. aeruginosa Ps 21 = test: Antibacterial activity (MIC, agar dilution per CLSI) against P. aeruginosa Ps 21; details: for MIC: Pseudomonas aeruginosa
Procedure: as §1, §2

E. Coli W 13353 = test: Antibacterial activity (MIC, agar dilution per CLSI) against E. Coli W 13353; details: for MIC: Escherichia coli
Procedure: as §1, §2

E. Coli W 13351 = test: Antibacterial activity (MIC, agar dilution per CLSI) against E. Coli W 13351; details: for MIC: Escherichia coli
Procedure: as §1, §2

[1] = MDR Gram negative strain, Class C ESBL, agar dilution, 16-20 hours at 35±2° C.
[2] = PS32, MDR P. aeruginosa strain, agar dilution, 16-20 hours at 35±2° C., read-out: MIC Ps 32
[3] = MDR Gram negative strain, Class C ESBL, 16-20 hours at 35±2° C., read-out: MIC E. Coli M 50
[4] = MDR Gram negative strain, Class A ESBL, 16-20 hours at 35±2° C., read-out: MIC E. Coli W 13352
[5] = PS21, MDR P. aeruginosa strain, agar dilution, 16-20 hours at 35±2° C., read-out: MIC Ps 21
[6] = MDR Gram negative strain, Class A ESBL, 16-20 hours at 35±2° C., read-out: MIC E. Coli W 13353
[7] = MDR Gram negative strain, Class A ESBL, 16-20 hours at 35±2° C., read-out: MIC E. Coli W 13351
[8] = MDR P. aeruginosa strain, agar dilution, 16-20 hours at 35±2° C.
[9] = MDR Gram negative strain, Class C ESBL, 16-20 hours at 35±2° C.
[10] = MDR Gram negative strain, Class A ESBL, 16-20 hours at 35±2° C.

| SMILES | MIC (E. Coli H 483; [1]) [µg/mL] | MIC (P. aeruginosa Ps 32; [2]) [µg/mL] | MIC (E. Coli M 50; [3]) [µg/mL] | MIC (E. Coli W 13352; [4]) [µg/mL] | MIC (P. aeruginosa Ps 21; [5]) [µg/mL] | MIC (E. Coli W 13353; [6]) [µg/mL] | MIC (E. Coli W 13351; [7]) [µg/mL] | MIC E. Coli M 50 (E. Coli M 50; [9]) [µg/mL] | MIC E. Coli W 13352 (E. Coli W 13352; [10]) [µg/mL] | MIC E. Coli W 13353 (E. Coli W 13353; [10]) [µg/mL] | MIC E. Coli W 13351 (E. Coli W 13351; [10]) [µg/mL] | also measured |
| --- | --- | --- | --- | --- | --- | --- | --- | --- | --- | --- | --- | --- |
| O=C(NOC[C@@H]1CCCN1)[C@@H]1CC[C@@H]2CN1C(=O)N2OS(=O)(=O)O [Example 1, (2S,5R)-7-oxo-N-[(2S)-pyrrolidin-2-ylmethyloxy]-6-(sulfooxy)-1,6-diazabicyclo[3.2.1]octane-2-carboxamide] | > 32 | > 32 | 0.5 (≈ 1.37 µM) | 1 (≈ 2.74 µM) | > 32 | 0.5 (≈ 1.37 µM) | 1 (≈ 2.74 µM) | – | – | – | – | – |
| O=C(NOC[C@H]1CCCN1)[C@@H]1CC[C@@H]2CN1C(=O)N2OS(=O)(=O)O [Example 2, (2S,5R)-7-oxo-N-[(2R)-pyrrolidin-2-ylmethyloxy]-6-(sulfooxy)-1,6-diazabicyclo[3.2.1]octane-2-carboxamide] | > 32 | > 32 | 1 (≈ 2.74 µM) | 2 (≈ 5.49 µM) | > 32 | 1 (≈ 2.74 µM) | 2 (≈ 5.49 µM) | – | – | – | – | – |
| O=C(NOCC1CCCCN1)[C@@H]1CC[C@@H]2CN1C(=O)N2OS(=O)(=O)O (stereo partly drawn) [Example 17, (2S,5R)-7-oxo-N-((2R,S)piperidin-2-ylmethyloxy)-6-(sulfooxy)-1,6-diazabicyclo[3.2.1]octane-2-carboxamide] | – | – | – | – | – | – | – | 0.5 (≈ 1.32 µM) | 1 (≈ 2.64 µM) | 0.5 (≈ 1.32 µM) | 1 (≈ 2.64 µM) | MIC E. Coli H 483 (E. Coli H 483; [1]): >32 µg/mL; MIC Ps 32 (P. aeruginosa Ps 32; [8]): >32 µg/mL; MIC Ps 21 (P. aeruginosa Ps 21; [8]): >32 µg/mL |
| O=C(NOC[C@@H]1CCCCN1)[C@@H]1CC[C@@H]2CN1C(=O)N2OS(=O)(=O)O [Example 18, (2S,5R)-7-oxo-N-((2S)piperidin-2-ylmethyloxy)-6-(sulfooxy)-1,6-diazabicyclo[3.2.1]octane-2-carboxamide] | – | – | – | – | – | – | – | 1 (≈ 2.64 µM) | 1 (≈ 2.64 µM) | 0.5 (≈ 1.32 µM) | 1 (≈ 2.64 µM) | MIC (E. Coli H 483): > 32 µg/mL; MIC (P. aeruginosa Ps 32; PS32, read-out: MIC Ps 32): > 32 µg/mL; MIC (P. aeruginosa Ps 21; PS21, read-out: MIC Ps 21): > 32 µg/mL |
| O=C(NOC[C@@H]1CCCCN1)[C@@H]1CC[C@@H]2CN1C(=O)N2OS(=O)(=O)O [Example 19, (2S,5R)-7-oxo-N-((2S)piperidin-2-ylmethyloxy)-6-(sulfooxy)-1,6-diazabicyclo[3.2.1]octane-2-carboxamide] | – | – | – | – | – | – | – | 8 (≈ 21.1 µM) | 16 (≈ 42.3 µM) | 4 (≈ 10.6 µM) | 8 (≈ 21.1 µM) | MIC E. Coli H 483 (E. Coli H 483; [1]): >32 µg/mL; MIC Ps 32 (P. aeruginosa Ps 32; [8]): >32 µg/mL; MIC Ps 21 (P. aeruginosa Ps 21; [8]): >32 µg/mL |
| O=C(NOC1CCNC1)[C@@H]1CC[C@@H]2CN1C(=O)N2OS(=O)(=O)O (stereo partly drawn) [Example 30, (2S,5R)-7-oxo-N-[(3R,S)-pyrrolidin-3-yloxy]-6-(sulfooxy)-1,6-diazabicyclo[3.2.1]octane-2-carboxamide] | – | – | – | – | – | – | – | 4 (≈ 11.4 µM) | 8 (≈ 22.8 µM) | 4 (≈ 11.4 µM) | 8 (≈ 22.8 µM) | MIC E. Coli H 483 (E. Coli H 483; [1]): >32 µg/mL; MIC Ps 32 (P. aeruginosa Ps 32; [8]): >32 µg/mL; MIC Ps 21 (P. aeruginosa Ps 21; [8]): >32 µg/mL |
| CN(C)c1cc(NC(=O)CNC(C)(C)C)c(O)c2c1C[C@H]1C[C@H]3[C@H](N(C)C)C(O)=C(C(N)=O)C(=O)[C@@]3(O)C(O)=C1C2=O [Tigecyclin, Tigecycline, reference compound] | – | – | – | – | – | – | – | – | – | – | – | MIC (E. Coli H 483): 0.5 µg/mL (≈ 0.854 µM); MIC (P. aeruginosa Ps 32; PS32, read-out: MIC Ps 32): 16 µg/mL (≈ 27.3 µM); MIC (E. Coli M 50; read-out: MIC E. Coli M 50, MDR Gram negative strain, Class C ESBL, 16-20 hours at 35±2° C.): 0.5 µg/mL (≈ 0.854 µM); MIC (E. Coli W 13352; read-out: MIC E. Coli W 13352, MDR Gram negative strain, Class A ESBL, 16-20 hours at 35±2° C.): 0.25 µg/mL (≈ 0.427 µM); MIC (P. aeruginosa Ps 21; PS21, read-out: MIC Ps 21): 16 µg/mL (≈ 27.3 µM); MIC (E. Coli W 13353; read-out: MIC E. Coli W 13353, MDR Gram negative strain, Class A ESBL, 16-20 hours at 35±2° C.): 1 µg/mL (≈ 1.71 µM); MIC (E. Coli W 13351; read-out: MIC E. Coli W 13351, MDR Gram negative strain, Class A ESBL, 16-20 hours at 35±2° C.): 1 µg/mL (≈ 1.71 µM) |

More lines, main results first:

| MIC (E. Coli H 483; [1]) [µg/mL] | MIC (P. aeruginosa Ps 32; [2]) [µg/mL] | MIC (E. Coli M 50; [3]) [µg/mL] | MIC (E. Coli W 13352; [4]) [µg/mL] | MIC (P. aeruginosa Ps 21; [5]) [µg/mL] | MIC (E. Coli W 13353; [6]) [µg/mL] | MIC (E. Coli W 13351; [7]) [µg/mL] | SMILES | MIC E. Coli M 50 (E. Coli M 50; [9]) [µg/mL] | MIC E. Coli W 13352 (E. Coli W 13352; [10]) [µg/mL] | MIC E. Coli W 13353 (E. Coli W 13353; [10]) [µg/mL] | MIC E. Coli W 13351 (E. Coli W 13351; [10]) [µg/mL] | also measured |
| --- | --- | --- | --- | --- | --- | --- | --- | --- | --- | --- | --- | --- |
| > 32 | 8 (≈ 18.4 µM) | > 32 | > 32 | 8 (≈ 18.4 µM) | > 32 | > 32 | C[C@H]1[C@H](NC(=O)/C(=N\OC(C)(C)C(=O)O)c2csc(N)n2)C(=O)N1S(=O)(=O)O [Aztreonam, reference compound] | – | – | – | – | – |
| > 32 | > 32 | > 32 | > 32 | > 32 | 32 (≈ 58.5 µM) | 32 (≈ 58.5 µM) | CC(C)(O/N=C(\C(=O)N[C@@H]1C(=O)N2C(C(=O)[O-])=C(C[n+]3ccccc3)CS[C@H]12)c1csc(N)n1)C(=O)O [Ceftazidime, reference compound] | – | – | – | – | – |
| > 32 | > 32 | 8 (≈ 22 µM) | 16 (≈ 43.9 µM) | > 32 | 8 (≈ 22 µM) | 16 (≈ 43.9 µM) | O=C(NOC[C@H]1CCNC1)[C@@H]1CC[C@@H]2CN1C(=O)N2OS(=O)(=O)O [Example 3, (2S,5R)-7-oxo-N-[(3S)-pyrrolidin-3-ylmethyloxy]-6-(sulfooxy)-1,6-diazabicyclo[3.2.1]octane-2-carboxamide] | – | – | – | – | – |
| > 32 | > 32 | 8 (≈ 22 µM) | 8 (≈ 22 µM) | > 32 | 8 (≈ 22 µM) | 8 (≈ 22 µM) | O=C(NOC[C@@H]1CCNC1)[C@@H]1CC[C@@H]2CN1C(=O)N2OS(=O)(=O)O [Example 4, (2S,5R)-7-oxo-N-[(3R)-pyrrolidin-3-ylmethyloxy]-6-(sulfooxy)-1,6-diazabicyclo[3.2.1]octane-2-carboxamide] | – | – | – | – | – |
| 1 (≈ 3.34 µM) | > 32 | 0.5 (≈ 1.67 µM) | 0.25 (≈ 0.835 µM) | > 32 | 0.25 (≈ 0.835 µM) | 0.25 (≈ 0.835 µM) | C[C@@H](O)[C@H]1C(=O)N2C(C(=O)O)=C(SCCN=CN)C[C@H]12 [Imipenem, reference compound] | – | – | – | – | – |
